Where two headings read alike, the source gives them in different places.
How the values were obtained:
[1] = cited from earlier work
[2] = Solubility in water

CC(=O)[C@H]1CC[C@H]2[C@@H]3CC[C@H]4C[C@](C)(O)CC[C@]4(C)[C@H]3CC[C@]12C [Ganaxolone, 3α-hydroxy, 3β-methyl-5α-pregnan-20-one]
half-life ([1]; human plasma following oral administration): approximately 20 hours | Tmax ([1]; therapeutic blood levels are reached quickly): short | solubility in water [2]: < 1 µg/mL

CC(=O)[C@H]1CC[C@H]2[C@@H]3CC[C@H]4C[C@H](O)CC[C@]4(C)[C@H]3CC[C@]12C [Allopregnanolone, 3α,5α-tetrahydroprogesterone]
half-life ([1]; human plasma): about 45 minutes

From US20180296487A1, “SUSTAINED RELEASE INJECTABLE NEUROSTEROID FORMULATIONS” (MARINUS PHARMACEUTICALS, INC., priority 2017, published 2018)
